Publication PMC8496261 (RSC Chemical Biology, 2021)
Numbered stars: 1 amine (or outer) side, 2 acyl side, 3 side chain; on linkers, the order of the positions; unused ones are H or OH. Bridge positions count the residues as written; N and C are the ends. Peptide text beside a SMILES is read from it. * marks the point of attachment. FITC = O=C1OC2(c3ccc(O)cc3Oc3cc(O)ccc32)c2ccc(NC(=S)*)cc21; X1 = Cc1c(C[*:1])n2c(C[*:2])c(C)c(=O)n2c1=O; βAla = NCCC(=O)O

Key:
PCNA (hPCNA) = PCNA (hPCNA) (Homo sapiens, UniProt P12004); assay: SPR steady state binding affinity for PCNA; details: for PCNA binding affinity, in words: SPR, 2 compared with peptide 1, 9 compared with peptide 7
[1] = system: MDA-MB-468 breast cancer cells (mKate nuclear label); assay: Cell uptake assay imaged by confocal fluorescence microscopy; format: cell-based, human; details: MDA-MB-468 cells, 10 μM peptide, 24 h, fixed

Sequence of PCNA (hPCNA) (P12004 whole entry): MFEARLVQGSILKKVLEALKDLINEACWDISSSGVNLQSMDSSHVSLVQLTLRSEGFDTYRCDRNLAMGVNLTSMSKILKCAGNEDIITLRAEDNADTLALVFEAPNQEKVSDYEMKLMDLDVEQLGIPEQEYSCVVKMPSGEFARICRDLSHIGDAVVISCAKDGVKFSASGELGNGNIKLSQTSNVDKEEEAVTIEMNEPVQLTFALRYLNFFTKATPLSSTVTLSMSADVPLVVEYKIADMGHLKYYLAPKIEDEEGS

Compound	PCNA binding affinity, in words (PCNA (hPCNA))	Kd (PCNA (hPCNA); SEM) [µM]	intracellular distribution of peptide fluorescence [1]
Ac-RQCSMTCFYHSK-NH2 [Peptide 2]	significantly reduced PCNA affinity	–	–
CSCC[C@H](NC(=O)[C@H](CO)NC(=O)[C@@H](NC(=O)[C@H](CCC(N)=O)NC(=O)[C@@H](N)CCCNC(=N)N)[C@@H](C)O)C(=O)N[C@H](C(=O)N[C@@H](CC(=O)O)C(=O)N[C@@H](Cc1ccccc1)C(=O)N[C@@H](Cc1ccc(O)cc1)C(=O)N[C@@H](Cc1c[nH]cn1)C(=O)N[C@@H](CO)C(=O)N[C@@H](CCCCN)C(N)=O)[C@@H](C)O [Peptide 1] (H-RQTSMTDFYHSK-NH2)	–	0.102 ± 0.005	–
CSCC[C@@H]1NC(=O)[C@H](CO)NC(=O)[C@@H](NC(=O)[C@H](CCC(N)=O)NC(=O)[C@H](CCCNC(=N)N)NC(=O)CCNC(=S)Nc2ccc3c(c2)C(=O)OC32c3ccc(O)cc3Oc3cc(O)ccc32)CSCc2c(C)c(=O)n3c(=O)c(C)c(n23)CSC[C@@H](C(=O)N[C@@H](Cc2ccccc2)C(=O)N[C@@H](Cc2ccc(O)cc2)C(=O)N[C@@H](Cc2c[nH]cn2)C(=O)N[C@@H](CO)C(=O)N[C@@H](CCCCN)C(N)=O)NC(=O)[C@H]([C@@H](C)O)NC1=O [Peptide 9] ({FITC-βAla}-RQCSMTCFYHSK-NH2; linker 3-7 via X1)	dramatically decreases the binding affinity	–	both blue and green fluorescence present throughout the cell cytoplasm
